From paper PMC12388980, “Development of AGT-7: An Innovative ^99mTc-Labeled Theranostic Platform for Glioblastoma Imaging and Therapy” (Pharmaceuticals, 2025)
pIC50: −log10 of the molar value.

Key:
T98 cells [1] = assay: Flow cytometric analysis of DNA cell cycle, T98 cells; format: cell-based; details: treated at IC50 for 72 h
Procedure: (§1) Subsequently, cells were washed with phosphate-buffered saline (PBS) solution, harvested by incubation with trypsin, and held at 37 °C for 20 min with a PI working solution ([…], and 0.1% Triton X-100). PI fluorescence data were collected using a flow cytometer (Cytognos S.L., Polígono La Serna, Nave 9, 37900 Santa Marta de Tormes, Salamanca, Spain) and were analyzed using GraphPad Prism Version 6 software and MedCalc software (trial version).
(§2) Figure 5 Graphical representation of cell cycle distribution in T98 (A) and U87 (B) cell lines after treatment with AGT-7 in IC50 concentration. Experiment was carried out three times, and values are means of three repetitions.

U87 cells [2] = assay: Flow cytometric analysis of DNA cell cycle, U87 cells; format: cell-based; details: treated at IC50 for 72 h
Procedure: as §1, §2

U87 cells [3] = assay: Trypan blue exclusion cytotoxicity assay, U87 cells; format: cell-based; details: Homo sapiens, U-87 MG, U87 cell line, 72 h post-treatment
Procedure: (§3) To explore the effect of AGT-7 on the viability of GBM cell lines, T98 and U87 cells were cultured with escalating concentrations of the compounds for 72 h, and afterward, the trypan blue exclusion assay was carried out.
(§4) The sensitivity of T98 and U87 cells to the compound was assessed using the trypan blue exclusion test. A total of 20,000 cells were seeded onto 12-well plates and incubated in a humidified atmosphere. After 24 h, cells were treated with the compound at concentrations of 20–100 μM for 72 h followed by trypan blue exclusion analysis. The results were derived as the mean of three independent experiments.
(§5) Figure 3 Cytotoxic effect of AGT-7 on T98 (A) and U87 cell lines (B) 72 h after treatment. The results are the average of three independent experiments and are standardized to untreated cells. The IC50 values were calculated using the GraphPad Prism Version 6 non-linear regression analysis model.
as §5, with “4” for “3”, “AGT-7 and TMZ” for “AGT-7”

[4] = tested on: zebrafish (Danio rerio) embryos; assay: Acute toxicity test in zebrafish embryos (OECD 2010); format: in vivo; details: 96 hpf
Procedure: Prior to advancing the biological evaluation of AGT-7, it was essential to assess its in vivo acute toxicity. To this end, we employed a standard acute exposure assay using zebrafish (Danio rerio) embryos as a vertebrate model system. Drug exposure was for 96 h post-fertilization (hpf), following the guidelines established by the Organisation for Economic Co-operation and Development (OECD, 2010) for fish embryo toxicity testing. […] This alignment between therapeutically effective concentrations and sub-lethal doses in vivo underscores a favorable safety profile for AGT-7 and supports its further preclinical development.
Adult zebrafish specimens of the wild-type strain (AB) were maintained in a colony room, in a recirculated system, at 28 ± 1 °C, pH 6.5–7.5, and water conductivity of 500 ± 50 μS cm−1 with a 14 h light/10 h dark photoperiod (lights on at 8:00 a.m.). Feeding of the fish was performed twice a day with zebrafish feed (Zebrafeed, Sparos, […]) following common practices. Sexually mature zebrafish (at least three months old) were used for spawning.
The collection of zebrafish eggs was performed at the beginning of the 14 h light phase following the mating procedure that took place overnight. […] The dechorionation process of the eggs followed at 24 h post-fertilization (hpf).
The dechorionated embryos were placed in 24-well culture plates (2 embryos per well, 1.5 mL of solution per well), and each experiment was performed in triplicate. Preliminary tests were performed to evaluate the range of 0–100% mortality. DMSO (0.1%) was used as dissolver and as well as vehicle control (non-exposed). In the current study, seven different concentrations of AGT-7 were tested (0.0, 10.0, 20.0, 40.0, 60.0, 80.0, and 100.0 μΜ). In total, 881 embryos were studied, of which 96 belonged to the non-exposed group. […] Each experiment lasted 96 h post fertilization time (hpf) and began at 24 hpf, approximately at the 26-somite point, according to Kimmel et al..
It is essential to apply an acute test that uses short-term exposure (96hpf) to AGT-7 and then to determine the concentration that is lethal to 50% of zebrafish embryos. This is a valuable indicator of acute fish toxicity. According to OECD 2010, indications of death of an embryo include coagulation of the embryo, lack of somite formation, non-detachment of the tail, and/or lack of heartbeat.
Toxicity assays (LD50 values) and confidence limits (LD25 and LD75) were calculated based on cumulative mortality at the end of the experiment (96 hpf). The LD50 values were assessed using Regression Probit analysis (the chi-square test, Pearson goodness of fit test, and 95% confidence interval).

T98 cells [5] = assay: Trypan blue exclusion cytotoxicity assay, T98 cells; format: cell-based; details: Homo sapiens, T98 cell line, 72 h post-treatment
Procedure: as §3, §4, §5
as §5, with “4” for “3”, “AGT-7 and TMZ” for “AGT-7”

[6] = LC-MS-based plasma stability in human plasma; format: in vitro ADME; details: 1 μM, 37 °C, 9-h incubation period, compared to TMZ
Procedure: Plasma samples were diluted 1:1 (v/v) with phosphate buffer (pH 7.4). […] The mixtures were vortexed vigorously and incubated at 37 °C on a thermoshaker (Kisker Biotech, Steinfurt, Germany) at 600 rpm. Reactions were terminated at 0, 1, 2, 3, 4, 6, 9, and 24 h by transferring 150 μL of the incubated plasma into 450 μL of ice-cold ACN. After vortexing, samples were stored at −20 °C for 30 min and centrifuged, and 200 μL of the supernatant was diluted with 600 μL of water. The resulting solution was filtered through a 0.22 μm nylon syringe filter (Target Analysis, Thessaloniki, Greece) into 2 mL glass vials before analysis.
The mobile phase consisted of (A) 0.1% formic acid in water and (B) 0.05% formic acid in ACN, delivered constantly at 0.2 mL/min. The gradient program was optimized as follows: 1% B (0.00–3.00 min), linear ramp to 100% B (3.00–10.00 min), hold at 100% B (10.00–12.00 min), return to initial conditions (12.00–12.01 min), and re-equilibration at 1% B (12.01–15.00 min). […]
Full-scan MS data were acquired in MS^E mode with two alternating collision energy functions: low energy (4 eV) for precursor ions and ramped high energy (25–45 eV) for fragment ions. […] System control and data acquisition were managed using MassLynx v4.2 (SCN 1029), while UNIFI v1.9.4.053 facilitated data processing, including adduct identification ([M+H]⁺, [M+Na]⁺, [M+H2]^2+) and relative quantitation. […]

Cn1nnc2c(C(=O)NCCCCN(Cc3ccccn3)Cc3ccccn3)ncn2c1=O [AGT-7]
effect on cell cycle progression (T98 cells [1]): no significant effect on cell cycle progression
effect on cell cycle progression (U87 cells [2]): no significant effect on cell cycle progression
pIC50 (U87 cells [3]): 4.52
LD25 [4]: 35.54 µM
LD75 [4]: 61.64 µM
concentrations with no significant mortality [4]: up to 30 μM
LD50 ([4]; cumulative mortality, probit analysis): 46.81 µM
pIC50 (T98 cells [5]): 4.57
plasma stability profile [6]: very similar to that of the parent drug, TMZ

Cn1nnc2c(C(N)=O)ncn2c1=O [TMZ, temozolomide, reference compound]
pIC50 (U87 cells [3]): 4.30
pIC50 (T98 cells [5]): 3.84
